Converted amounts (≈) assume the structure as drawn. “And” between values parts separate entries of the source, which are not always exact repeats. Equal entries are not always repeated. Structures can show the parent of a compound that is named as a salt. Where two headings read alike, the source gives them in different places.
Tests used:
Pig pancreas trypsin [1] = molecular target: T1, Pig pancreas trypsin (Sus scrofa, UniProt P00761); details: for comparison purposes; cited from earlier work
[2] = Solubility in water and in water-ethanol mixtures; format: physicochemical
Pig pancreas trypsin [3] = molecular target: T1, Pig pancreas trypsin; test: Hydrolysis of substrate by trypsin, Michaelis kinetics; format: biochemical
Description: Crystalline Z-Arg-ATC hydrochloride (Seratec): 10^-3 M solution in Tris buffer, pH 8.0+CACl2, 10 mM.
Pig pancreas trypsin (SIGMA T0134): 10^-3 M solution in Tris buffer, pH 8.0+CACl2, 10 mM.
Tris buffer: solution A: 0.2M Tris, i.e. 24.23 g/l+CaCl2, 40 mM, i.e. 5.88 g/l; solution B: 0.1M HCl.
This buffer is prepared by mixing 250 ml of solution A with 268 ml of solution B and by topping up to 1 liter with water.
Acetate buffer: solution A: 0.02M acetic acid; solution B: 0.02M sodium acetate.
This buffer is prepared by mixing volume by volume solutions A and B to obtain a buffer at pH 4.75.
Aqueous 1.17N perchloric acid solution (1/10 dilution of pure acid).
The following substrate concentration range was prepared in tubes: 0-0.2-0.5-1-2-5-10×10^-4 M (final concentration).
To each tube was added a concentration of 6.67 μg/ml of trypsin, everything being dissolved in the Tris buffer pH 8.0+CaCl2, 10 mM and at ambient temperature. The enzyme is added at time 0. After 2 minutes, 250 μl are removed from each tube and poured into tubes containing 250 μl of 1.17N perchloric acid and 500 μl of water. The tubes are centrifuged and then the solution is diluted to 1/250 in the acetate buffer. The same operation is repeated at 17 min. The fluorescence intensity is measured at 380/490nm. The difference of the intensities at 17 and 2 min constitutes the signal.
The corresponding ATC concentration is calculated compared with a calibration range from 5×10^-9 to 2×10^-7 M.
This was followed by the determination of Km, Vm, kcat and the ratio kcat/Km. The results obtained are given in table 6, which also gives for comparison purposes the values obtained with Z-L-Arg-AMC and Bz DL Arg-AMC and Bz -L-Arg-AMC.

Pig pancreas trypsin [4] = molecular target: T1, Pig pancreas trypsin; test: Determination of trypsin, analytical characteristics; format: biochemical
Description: Six calibration ranges containing a final enzyme concentration of 0-0.42-0.84-1.67-3.33-6.67 μg/ml were prepared. Each calibration curve was determined by linear regression. The mean standard deviation is 2.45×10^-3 ±0.003×10^-3 for the gradient and 4.80×10^-3 ±2.53×10^-3 for the intercept The linearity test is significant at the 5% threshold (W=0.245). The quantification limit, calculated by the ratio 3σb /a is 0.05 μg/ml. The repeatability, evaluated by the variation coefficient, is 9.4% at 0.42 μg/ml, 5.9% at 0.84 μg/ml and 1.3% at 6.67 μg/ml.

[5] = Excitation and emission spectra of ATC derivatives (Table 4); format: physicochemical; details: 10^-7 M, Z-Arg-ATC in 50 mM Tris pH 8, 10 mM CaCl2
Description: The excitation and emission spectra of ATC and Z-Arg-ATC were plotted on the basis of 10^-7 M solutions in the 50 mM Tris buffer at pH 8 containing 10 mM of CaCl2. The maxima obtained are indicated in table 4 with the corresponding maxima of Leu-ATC.

[6] = Excitation and emission spectra of substrates and hydrolysis products (Table 1); format: physicochemical; details: 10^-7 M in Tris buffer, pH 7.8
Leucine aminopeptidase = details: known substrates, for comparison; medium with organic solvent; cited from earlier work
[7] = water, read-out: Solubility in water
[8] = enzyme 0-6.67 μg/ml, linear regression

T1 sequence (P00761 9-231): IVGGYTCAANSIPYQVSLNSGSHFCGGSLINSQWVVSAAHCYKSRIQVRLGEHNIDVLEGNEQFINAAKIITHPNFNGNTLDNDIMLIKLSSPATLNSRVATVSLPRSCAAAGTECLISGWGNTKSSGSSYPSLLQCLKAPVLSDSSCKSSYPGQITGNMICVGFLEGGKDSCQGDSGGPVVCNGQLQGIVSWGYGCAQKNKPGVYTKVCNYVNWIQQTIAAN

Cc1cc(=O)oc2cc(NC(=O)C(CCCNC(=N)N)NC(=O)c3ccccc3)ccc12 (racemic) [Bz--DL--Arg--AMC]
Km (Pig pancreas trypsin [1]): 250 µM | kcat (Pig pancreas trypsin [1]): 0.20 s⁻¹ | kcat/Km (Pig pancreas trypsin [1]): 800 M⁻¹ s⁻¹

Cc1cc(=O)oc2cc(NC(=O)[C@H](CCCNC(=N)N)NC(=O)c3ccccc3)ccc12 [Bz--L--Arg--AMC]
Km (Pig pancreas trypsin [1]): 110 µM | kcat (Pig pancreas trypsin [1]): 0.42 s⁻¹ | kcat/Km (Pig pancreas trypsin [1]): 3800 M⁻¹ s⁻¹

COCCOCCOCc1cc(=O)oc2c3c4c(cc12)CCCN4CCC3 [Compound 7, 2,3,6,7-tetrahydro-9-(2',5',8'-trioxanonyl)-1H, 5H, 11H-(1)-benzopyrano-(6,7,8-ij)-quinolizinone-11]
solubility ([2]; ethanol:water 30:70, organic solvent or mixture, read-out: Solubility in ethanol:water mixture (30:70)): 3000 µg/mL (≈ 8.03 mM) | solubility [2, 7]: 200 µg/mL (≈ 0.536 mM)

COCCOCCOCc1cc(=O)oc2cc(O)ccc12 [Compound 10, 7-hydroxy-4-(2',5',8'-trioxanonyl)coumarin]
solubility ([2]; water-ethanol 90:10, organic solvent or mixture, read-out: Solubility in the water-ethanol mixture (90:10)): 7000 µg/mL (≈ 23.8 mM) | solubility [2, 7]: 1000 µg/mL (≈ 3.4 mM)

COCCOCCOCc1cc(=O)oc2cc(NC(=O)[C@H](CCCNC(=N)N)NC(=O)OCc3ccccc3)ccc12 [Compound 14, N-carbobenzyloxy-L-arginyl-4-(2',5',8'-trioxanonyl)-7-coumarinylamide hydrochloride]
Vm (Pig pancreas trypsin [3]; Tris buffer pH 8.0 + CaCl2 10 mM, ambient temperature): 474 nmole/min/mg Ez | ATC hydrolysis solution (Pig pancreas trypsin [3]; substrate 0.2×10^-4 M): 0.224 µM/min | ATC working solution (Pig pancreas trypsin [3]; substrate 0.2×10^-4 M): 3.36 nM | IF(17)-IF(2) (Pig pancreas trypsin [3]; substrate 0.2×10^-4 M): 3.7 | ATC hydrolysis solution (Pig pancreas trypsin [3]; substrate 0.5×10^-4 M): 0.467 µM/min | ATC working solution (Pig pancreas trypsin [3]; substrate 0.5×10^-4 M): 7.00 nM | IF(17)-IF(2) (Pig pancreas trypsin [3]; substrate 0.5×10^-4 M): 7.7 | ATC hydrolysis solution (Pig pancreas trypsin [3]; substrate 1×10^-4 M): 1.03 µM/min | ATC working solution (Pig pancreas trypsin [3]; substrate 1×10^-4 M): 15.4 nM | IF(17)-IF(2) (Pig pancreas trypsin [3]; substrate 1×10^-4 M): 16.9 | ATC hydrolysis solution (Pig pancreas trypsin [3]; substrate 2×10^-4 M): 1.81 µM/min | ATC working solution (Pig pancreas trypsin [3]; substrate 2×10^-4 M): 27.1 nM | IF(17)-IF(2) (Pig pancreas trypsin [3]; substrate 2×10^-4 M): 29.8 | ATC hydrolysis solution (Pig pancreas trypsin [3]; substrate 5×10^-4 M): 2.36 µM/min | ATC working solution (Pig pancreas trypsin [3]; substrate 5×10^-4 M): 35.4 nM | IF(17)-IF(2) (Pig pancreas trypsin [3]; substrate 5×10^-4 M): 38.9 | ATC hydrolysis solution (Pig pancreas trypsin [3]; substrate 10×10^-4 M): 2.57 µM/min | ATC working solution (Pig pancreas trypsin [3]; substrate 10×10^-4 M): 38.6 nM | IF(17)-IF(2) (Pig pancreas trypsin [3]; substrate 10×10^-4 M): 42.4 | affinity and activity compared with Bz-DL-Arg-AMC (Pig pancreas trypsin [3]; words): comparable with Bz-DL-Arg-AMC | repeatability (variation coefficient) (Pig pancreas trypsin [4]; at 0.42 μg/ml enzyme): 9.4% | repeatability (variation coefficient) (Pig pancreas trypsin [4]; at 0.84 μg/ml enzyme): 5.9% | repeatability (variation coefficient) (Pig pancreas trypsin [4]; at 6.67 μg/ml enzyme): 1.3% | gradient of calibration curve (Pig pancreas trypsin [4]; [8]): 2.45×10^-3 ±0.003×10^-3 | intercept of calibration curve (Pig pancreas trypsin [4]; [8]): 4.80×10^-3 ±2.53×10^-3 | quantification limit (Pig pancreas trypsin [4]; trypsin, ratio 3σb/a): 0.05 µg/mL | detection limit for trypsin compared with substrates derived from AMC (Pig pancreas trypsin [4]; words): of the same order of magnitude as that obtained with substrates derived from AMC | excitation maximum, substrate [5]: 355 nm | fluorescence maximum, substrate ([5]; hydrochloride): 415 nm and 450 nm

N=C(N)NCCC[C@H](NC(=O)CNC(=O)CN)C(=O)Nc1ccc2c(CS(=O)(=O)O)cc(=O)oc2c1 [GlyGly Arg AMCS, reference compound]
Maximum excitation wavelength, substrate [6]: 336 nm | Maximum fluorescence wavelength, substrate [6]: 409 nm

CC(C)C[C@H](N)C(=O)Nc1ccc2ccccc2c1 [Leu-βnaphthylamide]
Km (Leucine aminopeptidase): 150 µM | Vm (Leucine aminopeptidase): 5.5 μmole/mg Ez/min

Cc1cc(=O)oc2cc(NC(=O)[C@H](CCCNC(=N)N)NC(=O)OCc3ccccc3)ccc12 [Z--L--Arg--AMC]
Km (Pig pancreas trypsin [1]): 200 µM | kcat (Pig pancreas trypsin [1]): 0.89 s⁻¹ | kcat/Km (Pig pancreas trypsin [1]): 4500 M⁻¹ s⁻¹
